From patent US9133208B2, “Radiolabelled rotenone derivatives and their use in SPECT imaging” (priority 2011, dated 2015)

Experiments:
[1] = Ex vivo biodistribution in Sprague-Dawley rats; conditions: 2 hr p.i.
Procedure: An amount of 0.5 mL of a 2.4 mCi/mL mixture of compounds 6-9 (Mixture A: composition comprising isomeric mixture of 12% 6 and 7 diastereomers; 88% 8 and 9 diastereomers) in 7% ethanol was diluted with 0.58 mL of 10 mM sodium acetate, pH 6.5 and 0.023 mL of 95% ethanol, to produce a 1.1 mL of a 1.1 mCi/mL solution having a value of pH of about 5. An amount of 0.8 mL of this solution (0.9 mCi) was injected through the tail veins of 14 Sprague-Dawley rats. Six of the rats were used to assess biodistribution of the mixture of compounds 6-9 after two hours, and the remaining eight rats were used to determine the biodistribution of the compounds after 24 hours. Selected organs were collected and weighed and the activity was measured for each organ with a gamma well counter using the detection range of 138-207 keV, and the measured values of activity were decay-corrected to the time of injection. The values of percentage of injected dose per gram of tissue (% ID/g) were calculated by taking the ratio of the activity in the organ over the total activity injected per gram of tissue. Uptake in the heart of the rat was confirmed by the SPECT/CT images shown in FIG. 5, in which the heart is well defined.
A biodistribution study was conducted according to the method described above using purified fractions of the mixture of isomers 6-9 (Mixture A).
FIGS. 3B-3E show HPLC chromatograms of the four separate fractions used in the biodistribution study: Fraction 1: fraction comprising 100% of Component A*; Fraction 2: fraction comprising an isomeric mixture comprising 15.2% Component A* and 84.8% Component B*; Fraction 3: fraction comprising an isomeric mixture comprising 4.4% Component A*, 4.4% Component B* and 91.2% Component C*; Fraction 4: fraction comprising an isomeric mixture comprising 1.5% Component A*, 0.8% Component B* and 97.7% Component D*.

pig heart = test: Uptake of radiotracers as a function of myocardial blood flow (MBF) in pig heart; assay type: in vivo; conditions: for myocardial flow rate at which uptake begins to level off (roll off): two hours after injection, stress and induced ischemic conditions
Text: The tissue and blood samples were weighed and measured using a gamma well counter to determine the amount of gamma radiation emitted by the I-123 radiolabel of the radio-iodinated tracers of the present invention. The measured gamma radiation in each segment represents the combined amount of gamma radiation emitted by the tracers in that segment during the resting and stressed states of the heart. The counts and the weights of the samples were also used to calculate the percentage of injected dose per gram of tissue (% ID/g). After the I-123 in the blood and tissue samples had completely decayed, both the tissue and the blood were dried in an oven at 70° C. for 48-72 h, the samples were sent for neutron activation and the gamma radiation emitted by each of the resulting radioactive [^198Au]gold-containing microspheres and [^153Sm]samarium-containing microspheres, which were embedded in the samples, were measured. Polar maps of the resting and stressed states of the isolated heart of the pig were generated using MATLAB™ to assemble the gamma measurement results in all the transected segments from the bottom (apex) to the top (AV groove) of the pig heart.
The myocardial blood flow (MBF) that was present in the tissue samples during the resting and stressed states was determined from the total amount of gamma radiation emitted from each of the radioactive gold and samarium microspheres, respectively, in the isolated transections of the heart of the pig and the dried blood sample according to the following equation: MBF=[(Reference blood sample withdrawal rate (4 mL/min)/(Weight of myocardial sample (g)]×[Isotope count (myocardial sample)/Isotope counts (reference blood sample)].
FIG. 8 illustrates a plot of uptake (percent of injected dose per gram of tissue; % ID/g) of the radiotracer compounds of the present invention as a function of the myocardial blood flow in the pig heart under stress and induced ischemic conditions as determined using the marked microspheres.

dog heart [2] = test: Literature tracer uptake vs microsphere flow in dog with critical LAD stenosis (Broisat et al., Glover et al.); assay type: in vivo
Text: The slope of a non-linear fitted line to the ^123I-ZIROT data shown in FIG. 3 of Broisat et al. is −3.59.

rabbit hearts = test: Myocardial distribution in isolated retrograde perfused (Langendorff) rabbit heart; design: species or system New Zealand White rabbits; conditions: for fractional appearance rates at later time points / initial peak fractional venous appearance rate: flow rate 1.7 ml/min/g LV, FIG. 9, qualitative
Procedure: Preparation of retrograde perfusion (Langendorff) was performed as previously described (R. C. Marshall, P. Powers-Risius, B. W. Reutter, S. E. Taylor, H. F. VanBrocklin, R. H. Huesman, T. F. Budinger J Nucl Med. 2001; 42:272-281, which is incorporated by reference herein) using hearts from 1.5-2.5 kg male New Zealand White rabbits (Charles River, Wilmington Mass.). Following an injection of heparin (5 mg/kg) and median sternotomy, hearts were excised keeping the ascending aorta and aortic branches, lungs and thymus intact. The hearts were immediately placed into an ice-cold bath containing modified Tyrode's solution ([…], 1 mM MgCl2, 28 mM NaHCO3, 0.44 mM NaH2PO4, 2.5 mM CaCl2, 6 mM KCl, 5 mM glucose, […] with 22 g/L BSA and aerated with 95% O2/5% CO2) and thymus and fatty tissue were quickly removed. The hearts were then suspended on an aortic cannula and perfused with pre-warmed modified Tyrode's buffer through a water jacketed, temperature regulated Langendorff perfusion system (Radnotti, Calif., USA) at a constant flow rate. Total time for suspension onto the Langendorff apparatus was typically 60 seconds or less. Following suspension on the aortic cannula, the remaining lung, trachea and extraneous tissues were removed.
Fluid from Thebesian circulation was drained via a polyethylene catheterized apical drain. A fluid filled latex ballon connected to a pressure transducer (Radnotti) was inserted into the left ventrical via the left atrium and mitral valve. Following excision of the right atrium, a pacing electrode (Radnotti) was placed at the level of the atria to allow controlled pacing of the heart.
Following final preparation, the left ventricular balloon was inflated to achieve an end-diastolic pressure of approximately 8-10 mmHg with a constant systolic pressure held between 60-80 mm Hg. The heart was continually perfused with modified Tyrode's solution warmed to 38° C. and was held in an enclosed chamber to maintain humidity and temperature. The heart was paced with a Grass SD9 stimulator (Harvard Apparatus, Montreal QC) at 180 beats per minute with a stimulus of 4 V delivered over 4 ms. Perfusion and ventricular pressures were monitored throughout the experiment using a BioPac data acquisition system (BioPac, Montreal QC).
Radioactivity from all samples were counted in a gamma counter and data was analyzed using Matlab software. […] Maximal uptake values were determined for ^99mTc-sestamibi and Mixture A at varying flow rates (0.35-3.1 ml/min/g LV wet weight).

dog heart [3] = conditions: representative dog, critical LAD stenosis, intravenous adenosine; cited from earlier work
[4] = Literature isolated perfused heart data of Marshall et al. 2001
Text: A slower myocardial exit is beneficial for clinical diagnostic imaging since this permits the physician to gather images over a longer period of time thereby increasing image resolution, sensitivity and quality.
Marshall et al. report slopes of 0.29 and 0.78 for the fitted linear lines to the maximal uptake data for ^99mTc-sestamibi and ^125I-rotenone, respectively. The slopes of the fitted lines to the data for ^99mTc-sestamibi and the isomers of Mixture A shown in FIG. 10 of the present application are 0.33 and 0.86, respectively. The value of the ratio of the slopes of the fitted lines for ^125I-rotenone and ^99mTc-sestamibi from Marshall et al. is 2.69, while the value of the ratio of the slopes of the fitted lines for Mixture A and ^99mTc-sestamibi shown in FIG. 10 is 2.61. […] A linear uptake of tracer with increasing flow is especially desired in a clinical setting since in patients, deficiencies in myocardial perfusion are almost exclusively detected at higher blood flow rates, i.e. during a stress test by comparison of low (ischemic) and high flow (normal) areas.

[5] = compared with FIG. 9; cited from earlier work
rat cardiomyocytes = test: Cell uptake (internalization) assay with labeled rotenone derivatives; assay type: cell-based; conditions: 0.5 μCi tracer, time points up to 5 min
Procedure: An internalization assay was used to test the in vitro function of candidate perfusion tracers. In this assay, cultures of rat cardiomyocytes were plated at a density of 3-5×10^5 cells/mL into 24-well tissue culture plates. The cardiomyocytes were then incubated with 0.5 μCi of radiolabeled tracer ^99mTc-tetrofosmin (Myoview™) or [^123I] iodinated rotenone (mixture containing isomers 6-9) mixed in cell culture medium (DMEM) and incubated for up to five minutes. At different time points, the total supernatant was collected, the cells were washed twice with PBS and then exposed and lysed with 1 M NaOH for 15 min. Samples were counted in a gamma well counter and the cellular protein was determined for the lysed samples. The data was analyzed to represent the total “internalized” fraction expressed as cpm per total protein (FIG. 4).

[6] = flow rates 0.35-3.1 ml/min/g LV wet weight

COc1cc2c(cc1OC)[C@@H]1C(=O)c3ccc4c(c3O[C@@H]1CO2)C[C@H](C(C)([123I])CO)O4 (single isomer, unassigned) [B*]
Heart [1]: slightly lower | Heart/Liver ratio [1]: relatively higher | Intestine [1]: significantly higher than others | Liver [1]: much lower

COc1cc2c(cc1OC)[C@@H]1C(=O)c3ccc4c(c3O[C@@H]1CO2)C[C@H](C(C)([123I])CO)O4 (single isomer, unassigned) [Fraction 1]
Blood [1]: 0.191 ± 0.040 % ID/g | Brain [1]: 0.063 ± 0.013 % ID/g | Femur [1]: 0.239 ± 0.083 % ID/g | Heart [1]: 1.617 ± 0.335 % ID/g | Heart/Blood ratio [1]: 8.46 ± 0.51 | Heart/Liver ratio [1]: 1.20 ± 0.35 | Heart/Lung ratio [1]: 4.54 ± 0.59 | Intestine [1]: 0.787 ± 0.186 % ID/g | Kidney [1]: 0.634 ± 0.099 % ID/g | Liver [1]: 1.363 ± 0.101 % ID/g | Lung [1]: 0.357 ± 0.059 % ID/g | Muscle [1]: 0.369 ± 0.117 % ID/g | Spleen [1]: 0.177 ± 0.031 % ID/g | Stomach [1]: 1.628 ± 0.837 % ID/g | Testis [1]: 0.128 ± 0.017 % ID/g | Thyroid [1]: 0.826 ± 0.191 % ID/g | Urine [1]: 0.528 ± 0.134 % ID/g

[C-]#[N+]CC(C)(C)OC.[C-]#[N+]CC(C)(C)OC.[C-]#[N+]CC(C)(C)OC.[C-]#[N+]CC(C)(C)OC.[C-]#[N+]CC(C)(C)OC.[C-]#[N+]CC(C)(C)OC.[Tc] [^99mTc-sestamibi]
slope of the non-linear fitted line, uptake (% ID/g) vs MBF (FIG. 8) (pig heart; pig hearts): −1.21 | myocardial flow rate at which uptake begins to level off (roll off) (pig heart): 1.5 mL/min/g | standardized slope (Glover et al. slope divided by 100) (dog heart [2]; representative dog, critical LAD stenosis, intravenous adenosine): −1.43 | fractional appearance rates at later time points (rabbit hearts): higher fractional appearance rates | initial peak fractional venous appearance rate (rabbit hearts): lower fractional venous appearance rates | intercept of linear regression, maximum net uptake vs flow (rabbit hearts; [6]): 0.14 | slope of linear regression, maximum net uptake vs flow (FIG. 10) (rabbit hearts; [6]): 0.33 | slope of non-linear fitted line, activity (% normal) vs microsphere flow (FIG. 4 of Glover et al.) (dog heart [3]): −143

COc1cc2c(cc1OC)C1C(=O)c3ccc4c(c3OC1CO2)CC(/C(C)=C\[123I])O4 (stereo not shown) [^123I-ZIROT, 7-(Z)-[^123I]iodorotenone]
ratio of slope (Broisat et al.) to standardized ^99mTc-Sestamibi slope (Glover et al.) (dog heart [2]; dog literature data): 2.5 | slope of non-linear fitted line, uptake vs microsphere flow (FIG. 3 of Broisat et al.) (dog heart [3]): −3.59

COc1cc2c(cc1OC)C1C(=O)c3ccc4c(c3OC1CO2)CC(/C(C)=C\[125I])O4 (stereo not shown) [^125I-rotenone, 7′-Z-[^125I]iodorotenone]
ratio of the slopes of the fitted lines vs ^99mTc-sestamibi (Marshall et al.) [4]: 2.69 | venous effluent rate at the later portions of the curve (FIG. 1 of Marshall et al.) [5]: higher venous effluent rate relative to the isomers of Mixture A

[201Tl] [^201Tl, ^201Thallium]
fractional appearance rates at later time points (rabbit hearts): higher fractional appearance rates | initial peak fractional venous appearance rate (rabbit hearts): lower fractional venous appearance rates

Technetium (^99mTc) tetrofosmin [^99mTc-tetrofosmin]
cellular internalization over time (cpm per total protein) (rat cardiomyocytes): evident at 15 s but a gradual increase was seen up to 5 min | myocardial flow rate at which uptake begins to level off (roll off) (pig heart): 2 mL/min/g
